Measured values taken from the NIST ThermoML archive (doi:10.1016/j.jct.2005.03.012).

Assay: excess molar enthalpy (molar enthalpy of mixing); xn = mol fraction of the nth substance listed
Conditions: Liquid

CO [methanol] + O
excess molar enthalpy [kcal/mol]
Conditions	8500 kPa	10000 kPa
505.01 K, x1 = 0.2	–	0.0844
505.63 K, x1 = 0.6	–	0.0984
505.93 K, x1 = 0.3	0.0752	–
506.02 K, x1 = 0.2	0.0617	–
506.29 K, x1 = 0.4	0.0736	–
506.52 K, x1 = 0.2	–	0.0828
506.53 K, x1 = 0.4	–	0.108
506.59 K, x1 = 0.1	0.0371	–
506.7 K, x1 = 0.5	0.0603	–
507.3 K, x1 = 0.6	0.0391	–
507.4 K, x1 = 0.8	–	0.0512
507.5 K, x1 = 0.6	–	0.093
507.82 K, x1 = 0.7	0.0164	–
507.86 K, x1 = 0.1	0.0344	–
508.01 K, x1 = 0.2	0.0531	–
508.15 K, x1 = 0.1	0.0342	–
508.15 K, x1 = 0.2	0.0525	0.0818
508.15 K, x1 = 0.3	0.0606	–
508.15 K, x1 = 0.4	0.0578	0.103
508.15 K, x1 = 0.5	0.0455	–
508.15 K, x1 = 0.6	0.0288	0.0886
508.15 K, x1 = 0.7	0.012	–
508.15 K, x1 = 0.8	-0.00588	0.0489
508.15 K, x1 = 0.9	-0.0143	–
508.29 K, x1 = 0.8	-0.00834	–
508.45 K, x1 = 0.9	-0.0172	–
508.63 K, x1 = 0.8	–	0.0472
508.68 K, x1 = 0.4	0.0514	–
509.15 K, x1 = 0.3	0.0516	–
509.29 K, x1 = 0.5	0.03	–
509.71 K, x1 = 0.2	–	0.0786
509.71 K, x1 = 0.6	–	0.0815
509.71 K, x1 = 0.8	–	0.0423
509.91 K, x1 = 0.1	0.0298	–
509.91 K, x1 = 0.2	0.0434	–
509.91 K, x1 = 0.3	0.0466	–
509.91 K, x1 = 0.4	0.0384	–
509.91 K, x1 = 0.5	0.0221	–
509.91 K, x1 = 0.6	0.00275	–
509.91 K, x1 = 0.7	-0.0163	–
509.91 K, x1 = 0.8	-0.0325	–
509.91 K, x1 = 0.9	-0.037	–
510.17 K, x1 = 0.7	-0.0212	–
510.19 K, x1 = 0.3	–	0.0908
510.22 K, x1 = 0.6	0.00151	–
510.22 K, x1 = 0.8	-0.0352	–
510.43 K, x1 = 0.4	–	0.0943
510.63 K, x1 = 0.2	–	0.0733
510.71 K, x1 = 0.9	-0.0418	–
510.88 K, x1 = 0.5	–	0.0876
511.51 K, x1 = 0.1	–	0.0425
511.67 K, x1 = 0.6	–	0.0678
512.18 K, x1 = 0.7	–	0.0484
512.47 K, x1 = 0.5	–	0.0767
512.6 K, x1 = 0.4	–	0.0828
512.67 K, x1 = 0.8	–	0.0257
512.9 K, x1 = 0.3	–	0.0793
512.9 K, x1 = 0.9	–	0.00574
513.15 K, x1 = 0.1	0.011	0.0396
513.15 K, x1 = 0.2	0.00782	0.0663
513.15 K, x1 = 0.3	-0.012	0.0779
513.15 K, x1 = 0.4	-0.0294	0.0799
513.15 K, x1 = 0.5	-0.0556	0.0728
513.15 K, x1 = 0.6	-0.0928	0.0598
513.15 K, x1 = 0.7	-0.14	0.0408
513.15 K, x1 = 0.8	-0.164	0.0228
513.15 K, x1 = 0.9	-0.155	0.00569
513.61 K, x1 = 0.2	–	0.0641
513.87 K, x1 = 0.1	–	0.0385
513.88 K, x1 = 0.6	–	0.0498
514.32 K, x1 = 0.1	-0.00899	–
514.32 K, x1 = 0.2	-0.0402	–
514.32 K, x1 = 0.3	-0.0669	–
514.32 K, x1 = 0.4	-0.118	–
514.32 K, x1 = 0.5	-0.16	–
514.32 K, x1 = 0.6	-0.183	–
514.32 K, x1 = 0.7	-0.214	–
514.32 K, x1 = 0.8	-0.247	–
514.32 K, x1 = 0.9	-0.28	–
514.44 K, x1 = 0.9	–	-0.00217
514.48 K, x1 = 0.7	–	0.0282
514.52 K, x1 = 0.8	–	0.0107
514.98 K, x1 = 0.1	–	0.0354
514.98 K, x1 = 0.2	–	0.0587
514.98 K, x1 = 0.3	–	0.0676
514.98 K, x1 = 0.4	–	0.0676
514.98 K, x1 = 0.5	–	0.0582
514.98 K, x1 = 0.6	–	0.0411
514.98 K, x1 = 0.7	–	0.0222
514.98 K, x1 = 0.8	–	0.00755
514.98 K, x1 = 0.9	–	-0.00311
